The source of these data is ChEMBL document CHEMBL1201862, “PubChem BioAssay data set” (2004).

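Growth conditions: 96-well plates. Treatment: test compound, 48 hours, 5 concentrations. Analysis: linear interpolation between bracketing concentrations; unreached endpoints set to highest concentration. GI50 is the concentration that inhibits growth by half.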 The source made the active and inactive calls. No stated cut-off is given here; in the data, active = GI50 up to about 1.1 µM and inactive = higher.

Among the test systems are MCF7; Malme-3M; Hs-578T; HCT-15; HOP-62; CAKI-1; IGROV-1; HCT-116; 786-0; SNB-75; SR; EKVX; UACC-62; NCI/ADR-RES; K562; HT-29; CCRF-CEM; TK-10; PC-3; UO-31.
Holding throughout (assay): DTP human tumour cell line panel, 48 h

For `COC12C=CC(CC1)C(C)(C)C2OS(C)(=O)=O` (stereo not given), the GI50 in the assay with MCF7 is > 100 µM (inactive); in the assay on Malme-3M, > 100 µM (inactive); in the assay on Hs-578T, > 100 µM (inactive); in the assay on HCT-15, over 100 µM; in the assay on HOP-62, > 100 µM (inactive); with CAKI-1, > 100 µM (inactive). In addition, the GI50 in the assay on IGROV-1 was > 100 µM (inactive); in the assay on HCT-116 it was > 100 µM (inactive); in the assay on 786-0, > 100 µM (inactive); in the assay with SNB-75, 38.3 µM (inactive); in the assay on SR, > 100 µM (inactive); in the assay on EKVX, > 100 µM (inactive). The GI50 with UACC-62, in the assay with NCI/ADR-RES, with K562, with HT-29, in the assay on CCRF-CEM and in the assay on TK-10 was > 100 µM (inactive) each time. In addition, the GI50 in the assay on PC-3 and with UO-31 was > 100 µM (inactive) in each case.
On to `CN(C)c1n/c(=N/Cc2ccco2)ss1`, for which the GI50 in the assay on MCF7 is 16.4 µM (inactive); in the assay with Malme-3M, 18.7 µM (inactive); with Hs-578T it was 29.6 µM (inactive); in the assay with HCT-15, 21.3 µM; with HOP-62, 24.9 µM (inactive); in the assay with CAKI-1, 30.5 µM (inactive). Besides, the GI50 was > 54.8 µM (inactive) in the assay with IGROV-1; 8.97 µM (inactive) in the assay on HCT-116; 3.65 µM (inactive) in the assay on 786-0; 20.5 µM (inactive) in the assay with SNB-75; 0.521 µM (active) with SR; 37.9 µM (inactive) in the assay with EKVX. Besides, the GI50 in the assay on UACC-62 was 5.32 µM (inactive); in the assay with NCI/ADR-RES it was 75.3 µM (inactive); in the assay on K562 it was 3.77 µM (inactive); with HT-29, 2.44 µM (inactive); in the assay on CCRF-CEM, 1.43 µM (inactive); in the assay on TK-10 it was 40 µM (inactive). In addition, the GI50 in the assay with PC-3 is 15.5 µM (inactive); with UO-31, 28.8 µM (inactive).
With `C[N+](C)(C)CC(=O)N/N=C/c1ccncc1`, the GI50 with MCF7 was > 100 µM (inactive); in the assay on Malme-3M it was > 100 µM (inactive); in the assay on Hs-578T, > 100 µM (inactive); in the assay with HCT-15, over 100 µM; with HOP-62, > 100 µM (inactive); in the assay with CAKI-1 it was > 100 µM (inactive). For the same compound, the GI50 in the assay on IGROV-1, in the assay on HCT-116, with 786-0, in the assay on SNB-75, in the assay on SR and in the assay on EKVX was > 100 µM (inactive) in each case. In addition, the GI50 with UACC-62, in the assay with NCI/ADR-RES, in the assay with K562, with HT-29, with CCRF-CEM and in the assay on TK-10 was > 100 µM (inactive) throughout. The GI50 in the assay on PC-3 and in the assay on UO-31 was > 100 µM (inactive) each time.
For the compound `CCOC(=O)C1(CC(=O)O)CCCC1=O` (stereo not given), the GI50 was > 100 µM (inactive) in the assay on MCF7; > 100 µM (inactive) in the assay with Malme-3M; > 100 µM (inactive) with Hs-578T; over 100 µM with HCT-15; > 100 µM (inactive) in the assay on HOP-62; > 100 µM (inactive) with CAKI-1. In addition, the GI50 in the assay on IGROV-1, in the assay with HCT-116, with 786-0, in the assay on SNB-75, with SR and in the assay on EKVX was > 100 µM (inactive) in each case. Besides, the GI50 in the assay with UACC-62, with NCI/ADR-RES, with K562, in the assay on HT-29, in the assay with CCRF-CEM and in the assay on TK-10 was > 100 µM (inactive) in each case. In addition, the GI50 with PC-3 and in the assay with UO-31 was > 100 µM (inactive) each time.
With `c1ccc(CNc2c3c(nc4ccccc24)CCC3)cc1`, the GI50 with MCF7 was 13.8 µM (inactive); in the assay on Malme-3M it was 17.3 µM (inactive); in the assay with Hs-578T, 27.2 µM (inactive); with HCT-15, 18.9 µM; in the assay with HOP-62, 8.97 µM (inactive); in the assay on CAKI-1, 15.3 µM (inactive). For the same compound, the GI50 with IGROV-1 is 15.8 µM (inactive); in the assay with HCT-116, 9.1 µM (inactive); in the assay with 786-0, 13.4 µM (inactive); in the assay on SNB-75 it was 18 µM (inactive); in the assay with SR it was 13.4 µM (inactive); with EKVX, 12.1 µM (inactive). The GI50 in the assay with UACC-62 was 12.8 µM (inactive); in the assay on NCI/ADR-RES, 14.2 µM (inactive); with K562, 5.58 µM (inactive); with HT-29, 5.52 µM (inactive); in the assay with CCRF-CEM, 3.79 µM (inactive); in the assay on TK-10, 13 µM (inactive). The figures for the GI50 with PC-3 and in the assay with UO-31 were 13.2 µM (inactive) and 11.4 µM (inactive), respectively.
In the case of `O=C1CC2SC(COCc3ccccc3)(CCN2Cc2ccccc2)C1` (stereo not given), the GI50 with MCF7 was 31 µM (inactive); in the assay with Malme-3M, 39.3 µM (inactive); with Hs-578T, > 100 µM (inactive); with HCT-15, 40.6 µM; with HOP-62, > 100 µM (inactive); in the assay with CAKI-1, > 100 µM (inactive). In addition, the GI50 was > 100 µM (inactive) with IGROV-1; 44.2 µM (inactive) in the assay on HCT-116; > 100 µM (inactive) in the assay on 786-0; > 100 µM (inactive) in the assay on SNB-75; 35.2 µM (inactive) in the assay with SR; 64.3 µM (inactive) with EKVX. The GI50 in the assay with UACC-62 was 81.1 µM (inactive); with NCI/ADR-RES it was 65 µM (inactive); in the assay with K562, 38.1 µM (inactive); in the assay with HT-29, 31.6 µM (inactive); in the assay on CCRF-CEM it was 65 µM (inactive); in the assay on TK-10 it was 19.9 µM (inactive). The GI50 in the assay on PC-3 was 35 µM (inactive); with UO-31, 34.7 µM (inactive).
Turning to `CC(C)Nc1[nH]c(C(=O)c2ccccc2)c(N)c1C(=S)Nc1ccccc1`, the GI50 with MCF7 is 40.4 µM (inactive); in the assay with Malme-3M, 19.3 µM (inactive); with Hs-578T, 86.1 µM (inactive); with HCT-15, 32.8 µM; with HOP-62, > 100 µM (inactive); with CAKI-1 it was > 100 µM (inactive). Besides, the GI50 was > 100 µM (inactive) with IGROV-1; 36.1 µM (inactive) with HCT-116; 36.5 µM (inactive) in the assay on 786-0; 69.3 µM (inactive) in the assay with SNB-75; 43.5 µM (inactive) in the assay with SR; > 100 µM (inactive) in the assay on EKVX. In addition, the GI50 in the assay on UACC-62 was 16.9 µM (inactive); in the assay with NCI/ADR-RES, > 100 µM (inactive); with K562, 60.8 µM (inactive); in the assay on HT-29 it was 27.9 µM (inactive); with CCRF-CEM it was > 100 µM (inactive); with TK-10 it was 57.1 µM (inactive). In addition, the GI50 is > 100 µM (inactive) in the assay with PC-3 and 77.1 µM (inactive) in the assay with UO-31.

By GI50 is commonly meant the concentration at which growth is held to half of that of the control.
